Measurements from patent US12331053B2, “Method for obtaining amorphous remimazolam besylate” (MOEHS IBERICA, S.L., priority 2019, dated 2025).
Read-outs that look alike come from different tables or passages of the source.

Tests used:
[1] = Stability study: storage in climatic chambers, solid form checked by XRPD and DSC; type: physicochemical; details: for solid form stability after storage (XRPD) / solid form stability after storage (XRPD, DSC): 40° C. and 80% relative humidity; for solid form stability after storage (XRPD): 6 months
Procedure: The XRPD analysis was performed using a Siemens model D-5000 X-ray powder diffractometer equipped with a copper anode. The radiation used is CuKα with a wavelength of 1.541838 Å. Scanning parameters: 4-50 degrees 2θ, continuous scan, ratio: 1.2 degrees/minute.
The differential scanning calorimetry (DSC) analysis was performed in a Mettler Toledo 822e apparatus with STARe SW15.00 software. Parameters: range of heating from 25 to 300° C. with a ramp of 20° C./min and a N2 flow of 50 mL/min. The measurement was taken with a closed perforated capsule.
This is proven in the stability results of the product in amorphous form obtained according to assays 1.5 (lyophilization in acetonitrile) and 1.6 (lyophilization in water) indicated in Table 1. To determine said stability, the product was stored in climatic chambers under two different conditions: a) temperature of 40° C. and 80% relative humidity and b) temperature of 25° C. and 60% relative humidity.

[2] = lyophilized alone, without excipients; cited from earlier work
[3] = free base, cited from earlier work

COC(=O)CC[C@@H]1N=C(c2ccccn2)c2cc(Br)ccc2-n2c(C)cnc21.O=S(=O)(O)c1ccccc1 [Assay 1.6, remimazolam besylate]
solid form stability after storage (XRPD) [1]: still maintains the initial characteristics in terms of the amorphous form | solid form stability after storage (XRPD, DSC) ([1]; 15 days): still maintains the initial characteristics in terms of the amorphous form

COC(=O)CC[C@@H]1N=C(c2ccccn2)c2cc(Br)ccc2-n2c(C)cnc21.O=S(=O)(O)c1ccccc1 [remimazolam besylate]
stability after lyophilization [2]: did not result in satisfactory stability

COC(=O)CC[C@@H]1N=C(c2ccccn2)c2cc(Br)ccc2-n2c(C)cnc21.O=S(=O)(O)c1ccccc1 [Assay 1.5, remimazolam besylate]
solid form stability after storage (XRPD) [1]: still maintains the initial characteristics in terms of the amorphous form | solid form stability after storage (XRPD, DSC) ([1]; 15 days): still maintains the initial characteristics in terms of the amorphous form | solid form stability after storage (XRPD, DSC) ([1]; 30 days): still maintains the initial characteristics in terms of the amorphous form

COC(=O)CC[C@@H]1N=C(c2ccccn2)c2cc(Br)ccc2-n2c(C)cnc21.O=S(=O)(O)c1ccccc1 [Comparative Example 3, remimazolam besylate]
solid form after storage (XRPD) ([1]; 4° C., one month): crystalline form 2 | solid form after storage (XRPD, DSC) ([1]; 40° C. and 80% RH, one week): crystalline form 2

COC(=O)CC[C@@H]1N=C(c2ccccn2)c2cc(Br)ccc2-n2c(C)cnc21 [remimazolam, methyl 3-{(4S)-8-bromo-1-methyl-6-(pyridin-2-yl)-4H-imidazo[1,2-a][1,4]benzodiazepin-4-yl}propanoate]
storage stability ([3]; 40° C. and 75% relative humidity, open vial): behaves like a deliquescent solid | storage stability ([3]; 60° C. and ambient humidity, closed vial): behaves like a deliquescent solid | storage stability ([3]; stored at 5° C.): stable
